Results: US20220387398A1, “IMMUNE TO[…] AND POTENTIATORS” (priority 2019, published 2022)

Experiments:
[1] = mouse
Description: Levels of ITE and ITC in mouse plasma were determined by liquid chromatography-mass spectrometry (LC-MS). Standard curves were produced by serial dilution of ITE and ITE and used to convert ion counts to absolute concentrations (FIG. 1A).
Each inhibitor was tested independently for its ability to protect ITE from degradation in 0.5 milliliters of mouse plasma (FIG. 2A).

[2] = system: ITE degradation in mouse plasma; assay: Inhibition of ITE degradation in mouse plasma by esterase inhibitors; assay type: biochemical; details: for inhibition of ITE degradation (in words, rank): mouse plasma, 1 millimolar benzil, BNPP and tacrine, 0.5 millimolar rivastigmine, pre-incubated 60 minutes
Description: Each inhibitor provided at least some protection from degradation.
FIGS. 3-7 show a mass balance analysis of ITE+ITC in the presence of each inhibitor.

SMILES | ITE lost ([1]; 30 min) | ITE degraded ([1]; 60 min) | inhibition of ITE degradation (in words, rank) [2] | ITE protected from degradation ([2]; 0.5 mL mouse plasma, at 120 minutes, 0.5 millimolar rivastigmine pre-incubated 60 minutes)
COC(=O)c1csc(C(=O)c2c[nH]c3ccccc23)n1 [ITE, 2-(1 H-Indol-3-ylcarbonyl)-4-thiazolecarboxylic acid methyl ester] | over 60% | about 90% |  | 
O=C(C(=O)c1ccccc1)c1ccccc1 [Benzil, benzil] |  |  | weakest single inhibitor | 
O=[N+]([O-])c1ccc(OP(=O)(O)Oc2ccc([N+](=O)[O-])cc2)cc1 [BNPP, bis-para-nitrophenylphosphate] |  |  | weaker inhibitors | 
Nc1c2c(nc3ccccc13)CCCC2 [Tacrine, tacrine] |  |  | weaker inhibitors | 
CCN(C)C(=O)Oc1cccc([C@H](C)N(C)C)c1 [Rivastigmine, rivastigmine] |  |  | best inhibitor of ITE degradation | ~70%
